According to patent US20260042731A1, “(2,4-DICHLOROPHENOXY)ACETIC ACID ANALOGS” (CORTEVA AGRISCIENCE LLC, priority 2022, published 2026):
Read-outs that look alike come from different tables or passages of the source.

Tests used:
[1] = system: glyphosate resistant Conyza canadensis (L.) (ERICA), horseweed; test: Postemergence herbicide evaluation, growth of Conyza canadensis (ERICA); assay type: in vivo; settings: Erigeron canadensis, post-emergence, read-out: Ave. ERICA
[2] = system: Abutilon theophrasti (ABUTH), velvetleaf; test: Postemergence herbicide evaluation, growth of Abutilon theophrasti (ABUTH); assay type: in vivo; settings: Abutilon theophrasti, post-emergence, read-out: AVE. ABUTH
[3] = system: Ambrosia artemisiifolia (AMBEL), common ragweed; test: Postemergence herbicide evaluation, growth of Ambrosia artemisiifolia (AMBEL); assay type: in vivo; settings: Ambrosia artemisiifolia, post-emergence, read-out: AVE. AMBEL
[4] = Volatility of compounds measured by thermogravimetric analysis (TGA); assay type: physicochemical
[5] = system: Chenopodium album (CHEAL), common lambsquarters; test: Postemergence herbicide evaluation, growth of Chenopodium album (CHEAL); assay type: in vivo; settings: Chenopodium album, post-emergence, read-out: Ave. CHEAL
[6] = system: Amaranthus rudis (AMATA), tall water hemp; test: Postemergence herbicide evaluation, growth of Amaranthus rudis (AMATA); assay type: in vivo; settings: Amaranthus tuberculatus, post-emergence, read-out: Ave. AMATA
[7] = system: weeds (ABUTH, AMATA, AMBEL, CHEAL, ERICA); test: Postemergence herbicide evaluation, overall average % weed control across ABUTH, AMATA, AMBEL, CHEAL, ERICA; assay type: in vivo; settings: post-emergence, read-out: Overall Ave % Weed Control
[8] = 168 h, 280 g ae/ha, 7 DAA, percent reduction in plant size relative to untreated control
[9] = 168 h, 560 g ae/ha, 7 DAA, percent reduction in plant size relative to untreated control
[10] = 336 h, 280 g ae/ha, 14 DAA, percent reduction in plant size relative to untreated control
[11] = 336 h, 560 g ae/ha, 14 DAA, percent reduction in plant size relative to untreated control
[12] = 504 h, 280 g ae/ha, 21 DAA, percent reduction in plant size relative to untreated control
[13] = 504 h, 560 g ae/ha, 21 DAA, percent reduction in plant size relative to untreated control
[14] = 168 h, 280 g ae/ha, 7 DAA, average over the five weeds
[15] = 168 h, 560 g ae/ha, 7 DAA, average over the five weeds
[16] = 336 h, 280 g ae/ha, 14 DAA, average over the five weeds
[17] = 336 h, 560 g ae/ha, 14 DAA, average over the five weeds
[18] = 504 h, 280 g ae/ha, 21 DAA, average over the five weeds
[19] = 504 h, 560 g ae/ha, 21 DAA, average over the five weeds

CCO/C(CC)=N\OC(=O)COc1ccc(Cl)cc1Cl [Compound A9, Ethyl N-2-(2,4-dichlorophenoxy)acetoxypropionimidate]
pest or weed control at 280 g/ha [1, 8]: 70% | pest or weed control at 560 g/ha [1, 9]: 70% | pest or weed control at 280 g/ha [1, 10]: 91% | pest or weed control at 560 g/ha [1, 11]: 84% | pest or weed control at 280 g/ha [1, 12]: 99% | pest or weed control at 560 g/ha [1, 13]: 97% | pest or weed control at 280 g/ha [2, 8]: 80% | pest or weed control at 560 g/ha [2, 9]: 80% | pest or weed control at 280 g/ha [2, 10]: 80% | pest or weed control at 560 g/ha [2, 11]: 96% | pest or weed control at 280 g/ha [2, 12]: 89% | pest or weed control at 560 g/ha [2, 13]: 95% | pest or weed control at 280 g/ha [3, 8]: 73% | pest or weed control at 560 g/ha [3, 9]: 83% | pest or weed control at 280 g/ha [3, 10]: 93% | pest or weed control at 560 g/ha [3, 11]: 93% | pest or weed control at 280 g/ha [3, 12]: 92% | pest or weed control at 560 g/ha [3, 13]: 96% | TGA Data (rate of weight loss, volatility) [4]: 0.5 µg/min | pest or weed control at 280 g/ha [5, 8]: 70% | pest or weed control at 560 g/ha [5, 9]: 65% | pest or weed control at 280 g/ha [5, 10]: 83% | pest or weed control at 560 g/ha [5, 11]: 68% | pest or weed control at 280 g/ha [5, 12]: 88% | pest or weed control at 560 g/ha [5, 13]: 75% | pest or weed control at 280 g/ha [6, 8]: 65% | pest or weed control at 560 g/ha [6, 9]: 78% | pest or weed control at 280 g/ha [6, 10]: 63% | pest or weed control at 560 g/ha [6, 11]: 85% | pest or weed control at 280 g/ha [6, 12]: 60% | pest or weed control at 560 g/ha [6, 13]: 84% | pest or weed control at 280 g/ha [7, 14]: 72% | pest or weed control at 560 g/ha [7, 15]: 75% | pest or weed control at 280 g/ha [7, 16]: 82% | pest or weed control at 560 g/ha [7, 17]: 85% | pest or weed control at 280 g/ha [7, 18]: 85% | pest or weed control at 560 g/ha [7, 19]: 89%

O=C(COc1ccc(Cl)cc1Cl)OCc1ccccc1 [Compound E4, Benzyl 2-(2,4-dichlorophenoxy)acetate]
pest or weed control at 280 g/ha ([1]; 168 h): 70% | pest or weed control at 560 g/ha ([1]; 168 h): 75% | pest or weed control at 280 g/ha ([1]; 336 h): 88% | pest or weed control at 560 g/ha ([1]; 336 h): 93% | pest or weed control at 280 g/ha ([1]; 504 h): 95% | pest or weed control at 560 g/ha ([1]; 504 h): 99% | pest or weed control at 280 g/ha ([2]; 168 h): 90% | pest or weed control at 560 g/ha ([2]; 168 h): 90% | pest or weed control at 280 g/ha ([2]; 336 h): 97% | pest or weed control at 560 g/ha ([2]; 336 h): 97% | pest or weed control at 280 g/ha ([2]; 504 h): 99% | pest or weed control at 560 g/ha ([2]; 504 h): 98% | pest or weed control at 280 g/ha ([3]; 168 h): 68% | pest or weed control at 560 g/ha ([3]; 168 h): 73% | pest or weed control at 280 g/ha ([3]; 336 h): 89% | pest or weed control at 560 g/ha ([3]; 336 h): 97% | pest or weed control at 280 g/ha ([3]; 504 h): 99% | pest or weed control at 560 g/ha ([3]; 504 h): 99% | TGA Data (rate of weight loss, volatility) [4]: 0.4 µg/min | pest or weed control at 280 g/ha ([5]; 168 h): 73% | pest or weed control at 560 g/ha ([5]; 168 h): 70% | pest or weed control at 280 g/ha ([5]; 336 h): 83% | pest or weed control at 560 g/ha ([5]; 336 h): 73% | pest or weed control at 280 g/ha ([5]; 504 h): 88% | pest or weed control at 560 g/ha ([5]; 504 h): 75% | pest or weed control at 280 g/ha ([6]; 168 h): 68% | pest or weed control at 560 g/ha ([6]; 168 h): 78% | pest or weed control at 280 g/ha ([6]; 336 h): 65% | pest or weed control at 560 g/ha ([6]; 336 h): 93% | pest or weed control at 280 g/ha ([6]; 504 h): 70% | pest or weed control at 560 g/ha ([6]; 504 h): 91% | pest or weed control at 280 g/ha ([7]; 168 h): 74% | pest or weed control at 560 g/ha ([7]; 168 h): 77% | pest or weed control at 280 g/ha ([7]; 336 h): 84% | pest or weed control at 560 g/ha ([7]; 336 h): 90% | pest or weed control at 280 g/ha ([7]; 504 h): 90% | pest or weed control at 560 g/ha ([7]; 504 h): 92%

O=C(COc1ccc(Cl)cc1Cl)ON1C(=O)c2ccccc2C1=O [Compound A15, 1,3-Dioxoisoindolin-2-yl 2-(2,4-dichlorophenoxy)acetate]
pest or weed control at 280 g/ha [1, 8]: 68% | pest or weed control at 560 g/ha [1, 9]: 65% | pest or weed control at 280 g/ha [1, 10]: 78% | pest or weed control at 560 g/ha [1, 11]: 88% | pest or weed control at 280 g/ha [1, 12]: 88% | pest or weed control at 560 g/ha [1, 13]: 95% | pest or weed control at 280 g/ha [2, 8]: 78% | pest or weed control at 560 g/ha [2, 9]: 85% | pest or weed control at 280 g/ha [2, 10]: 83% | pest or weed control at 560 g/ha [2, 11]: 95% | pest or weed control at 280 g/ha [2, 12]: 88% | pest or weed control at 560 g/ha [2, 13]: 99% | pest or weed control at 280 g/ha [3, 8]: 73% | pest or weed control at 560 g/ha [3, 9]: 75% | pest or weed control at 280 g/ha [3, 10]: 95% | pest or weed control at 560 g/ha [3, 11]: 88% | pest or weed control at 280 g/ha [3, 12]: 98% | pest or weed control at 560 g/ha [3, 13]: 95% | TGA Data (rate of weight loss, volatility) [4]: 0.1 µg/min | pest or weed control at 280 g/ha [5, 8]: 68% | pest or weed control at 560 g/ha [5, 9]: 70% | pest or weed control at 280 g/ha [5, 10]: 73% | pest or weed control at 560 g/ha [5, 11]: 70% | pest or weed control at 280 g/ha [5, 12]: 80% | pest or weed control at 560 g/ha [5, 13]: 75% | pest or weed control at 280 g/ha [6, 8]: 73% | pest or weed control at 560 g/ha [6, 9]: 73% | pest or weed control at 280 g/ha [6, 10]: 82% | pest or weed control at 560 g/ha [6, 11]: 78% | pest or weed control at 280 g/ha [6, 12]: 84% | pest or weed control at 560 g/ha [6, 13]: 83% | pest or weed control at 280 g/ha [7, 14]: 72% | pest or weed control at 560 g/ha [7, 15]: 74% | pest or weed control at 280 g/ha [7, 16]: 82% | pest or weed control at 560 g/ha [7, 17]: 84% | pest or weed control at 280 g/ha [7, 18]: 87% | pest or weed control at 560 g/ha [7, 19]: 89%
